Values joined by “and” are separate entries in the source; they are usually repeats but may differ in a detail not shown here. Equal entries are not always repeated.
How the values were obtained:
[1] = Water stability over time without applied voltage (HPLC residual rate); format: physicochemical; settings: for Residual rate (%): aqueous mixed solution with NIKKOL HCO-40, allowed to stand at 25° C. for 24 hours, HPLC area after 24 hours ÷ area immediately after preparation × 100; for water stability over time (in words): without applied voltage, 25° C., 24 hours, judged from residual rate
Procedure: Water Stability Over Time without Applied Voltage
To 1.0 part by mass of each of the compounds (1) to (9) synthesized in Examples and Comparative Examples, 1000 parts by mass of NIKKOL HCO-40 (Nikko Chemicals Co., Ltd.) and 10000 parts by mass of acetone were mixed.
Next, after removing the acetone using an evaporator at a temperature of 40° C., 10000 parts of water was added thereto to prepare a uniform mixed solution 1. The mixed solution 1 was allowed to stand at 25° C. for 24 hours.
Immediately after the preparation of the mixed solution 1 and after allowing the mixed solution 1 to stand for 24 hours, an HPLC measurement was carried out under the following analysis conditions, and a residual rate in the water stability test over time was calculated using the following expression.
(Area value after standing for 24 hours)÷(Area value immediately after preparation)×100=Residual rate (%)
SCL-10AVP manufactured by Shimadzu Corporation
Eluent: single eluent prepared by adding 0.2% by volume of each of acetic acid and triethylamine to a mixed solution obtained by mixing tetrahydrofuran (THF) and water at a ratio of 60:40

[2] = Water stability under applied voltage (square wave voltammetry, oxidation potential); format: physicochemical; settings: for Oxidation potential: SWV, 0.5 mM in THF:water=90:10, gold electrode, Ag wire reference, ferrocene reference substance, None = no oxidation potential, more stable than 1.3 V (THF oxidized); for water stability under applied voltage (in words): judged from whether an oxidation potential is observed
Procedure: Water Stability Under Applied Voltage
Water stability against voltage of each of the compounds (1) to (9) synthesized in Examples and Comparative Examples was evaluated by the measurement shown below.
Measurement: square wave voltammetry (SWV)
Action electrode: gold electrode
Counter electrode: platinum black electrode
Reference electrode: Ag wire
Supporting electrolyte: tetrabutylammonium hexafluorophosphate (manufactured by FUJIFILM Wako Pure Chemical Corporation)
Reference substance: ferrocene
The compound (1) was adjusted to a concentration of 0.5 mM using a mixed solvent of THF:water=90:10, and nitrogen bubbling was carried out for 10 minutes to produce a measurement sample.
Next, a measurement was performed under the above-described analysis conditions to observe an oxidation potential.
Oxidation potentials of the compounds (2) to (9) were measured under the same conditions.

Row | Residual rate (%) [1] | water stability over time (in words) [1] | Oxidation potential [2] | water stability under applied voltage (in words) [2] | SMILES
1 | 0% | deteriorated | None |  | CCCCCCCCOc1ccc(C2C(=O)Oc3c2cc(C(C)(C)C)cc3C(C)(C)C)cc1 (stereo not drawn) [Compound (7)]
2 | 100% |  | None |  | Cc1cc(C)c(C2C(=O)Oc3c2cc(C(C)(C)C)cc3C(C)(C)C)c(C)c1 (stereo not drawn) [Compound (1)]
3 | 0% | deteriorated | None |  | Cc1ccc(C2C(=O)Oc3c2cc(C(C)(C)C)cc3C(C)(C)C)cc1C (stereo not drawn) [Compound (5)]
4 | 95% |  | None |  | COc1cc(OC)c(C2C(=O)Oc3c2cc(C(C)(C)C)cc3C(C)(C)C)c(OC)c1 (stereo not drawn) [Compound (2)]

Continued, compound first:

Row | SMILES | Residual rate (%) [1] | water stability over time (in words) [1] | Oxidation potential [2] | water stability under applied voltage (in words) [2]
5 | Cc1c(C)c(C)c(C2C(=O)Oc3c2cc(C(C)(C)C)cc3C(C)(C)C)c(C)c1C (stereo not drawn) [Compound (6)] | 10% | still deteriorated | None | 
6 | COc1cc(OC)c(C2C(=O)Oc3c2cc(C)cc3C(C)(C)C)c(OC)c1 (stereo not drawn) [Compound (4)] | 95% |  | None | 
7 | CC(C)(C)c1cc(C2C(=O)Oc3c2cc(C(C)(C)C)cc3C(C)(C)C)c(O)c(C(C)(C)C)c1 (stereo not drawn) [Compound (9)] |  |  |  | low
8 | Cc1cc(C)c(C2C(=O)Oc3c2cc(C)cc3C(C)(C)C)c(C)c1 (stereo not drawn) [Compound (3)] | 90% |  | None | 
9 | Cc1c(C(C)(C)C)cc(C(C)(C)C)c(O)c1C1C(=O)Oc2c1cc(C(C)(C)C)cc2C(C)(C)C (stereo not drawn) [Compound (8)] | 0% |  | 0.65 V and 1.00 V and 1.15 V | low
